From PubChem BioAssay (NCI) come the findings set out here.

Some test systems named below: DU-145 prostate; HS 578T breast; MDA-MB-231 breast; PC-3 prostate; T-47D breast; HOP-18 NSCLC; KM20L2 colon; XF 498 CNS; LXFL 529 NSCLC; SNB-78 CNS.
Assay in all cases: inhibition of tumour cell growth, NCI panel, 48 h

Each structure is given as a SMILES string.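 How tested: cells in 96-well plates exposed to compound for 48 hours at five concentrations. GI50 is the concentration that inhibits growth by half. TGI marks complete inhibition of growth.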

For the compound `CCc1ccc(Oc2c(-c3ccc(OCc4ccc(Cl)cc4)cc3O)nn(C)c2C(F)(F)F)cc1`, the GI50 was 0.545 µM with DU-145 prostate; 1.5 µM in the test with HS 578T breast; 1.19 µM in the test with MDA-MB-231 breast; 0.358 µM in the test with PC-3 prostate; 0.248 µM with T-47D breast. Moreover, the TGI is 2.27 µM in the test with DU-145 prostate; 4.92 µM in the test on HS 578T breast; 2.85 µM in the test on MDA-MB-231 breast; 1.68 µM with PC-3 prostate; 0.936 µM in the test with T-47D breast.

Consider `O=C(Nc1ccccc1C(=O)NC(=O)c1ccccc1NC(=O)c1ccccc1)c1ccccc1`, for which the TGI came out at 17.9 µM in the test with HOP-18 NSCLC, 15.6 µM in the test on KM20L2 colon and 4.38 µM in the test on XF 498 CNS.

In the case of `Cc1ccc(-n2nc(C(OC3OC(CO)C(O)C(O)C3O)C(O)CO)c3nc4cc(C)c(C)cc4nc32)cc1` (configuration not stated), the TGI in the test with KM20L2 colon, in the test on LXFL 529 NSCLC, in the test with SNB-78 CNS and with XF 498 CNS was over 100 µM each time.

Regarding `CC(C)(C)O/N=C/c1cc(NC(=S)c2ccccc2)ccc1Cl`, the TGI worked out at 42.1 µM in the test on DU-145 prostate; 63 µM in the test with HS 578T breast; 40.3 µM in the test on MDA-MB-231 breast; 46 µM with PC-3 prostate; 62.5 µM in the test with T-47D breast.

As to `C#COc1cccc(Nc2ncnc3cc(NC(=O)[C@@H](C)Cl)ccc23)c1`, the GI50 with DU-145 prostate is 16.2 µM; with HS 578T breast, 7.88 µM; in the test with MDA-MB-231 breast it was 17.2 µM; in the test with PC-3 prostate, 11.7 µM; in the test with T-47D breast, 22.5 µM. Also, the TGI with DU-145 prostate, in the test on HS 578T breast, with MDA-MB-231 breast, in the test with PC-3 prostate and with T-47D breast was over 62.5 µM each time.

For the compound `O=C(Nc1nc2ccc(S(=O)(=O)Nc3ccc(C4(C(F)(F)F)CC4)cc3)cc2[nH]1)c1cnccn1`, the GI50 with DU-145 prostate is 2.88 µM; with HS 578T breast, 2.57 µM; in the test on MDA-MB-231 breast, 5.32 µM; with PC-3 prostate, 1.06 µM; in the test with T-47D breast, 3.8 µM. Besides, the TGI with DU-145 prostate amounted to 13.2 µM; with HS 578T breast, 13.5 µM; in the test with MDA-MB-231 breast, 19.4 µM; with PC-3 prostate, 2.47 µM; with T-47D breast, 23.9 µM.

As to `CCOC(=O)c1cn(C)c2c(OC)c3ccccc3c(OC)c2c1=O`, the GI50 in the test with DU-145 prostate is 63 µM; in the test with HS 578T breast, 23.6 µM; in the test with MDA-MB-231 breast, 32.6 µM; in the test on PC-3 prostate, 29 µM; in the test on T-47D breast, 12.4 µM. The TGI in the test on DU-145 prostate is over 100 µM; in the test on HS 578T breast it was 63.8 µM; with MDA-MB-231 breast, over 100 µM; with PC-3 prostate it was over 100 µM; in the test on T-47D breast, 42.9 µM.

With `O=c1[nH]c(=S)[nH]c(O)c1/C=C1\C=Nc2ccccc21`, the GI50 in the test on DU-145 prostate was 10.3 µM; in the test with HS 578T breast, 1.95 µM; in the test with MDA-MB-231 breast, 4.1 µM; in the test with PC-3 prostate, 4.88 µM; in the test on T-47D breast it was 34.4 µM. Further, the TGI was 35.4 µM in the test with DU-145 prostate; 6.19 µM in the test on HS 578T breast; 33.6 µM with MDA-MB-231 breast; 73.3 µM with PC-3 prostate; over 100 µM in the test on T-47D breast.

Consider `CC(C)c1ccc(Cc2ccc(C(C)C)c(NC(=O)C(=O)Cc3cnc4ccccc4n3)c2C(C)C)c(C(C)C)c1NC(=O)C(=O)Cc1cnc2ccccc2n1`, for which the TGI in the test with KM20L2 colon, in the test on LXFL 529 NSCLC and with SNB-78 CNS was over 100 µM each time.

Turning to `Cc1nc2ccncc2[nH]1`, the TGI in the test on KM20L2 colon, in the test with LXFL 529 NSCLC and in the test on XF 498 CNS was over 100 µM in each case.

Turning to `N#CN1CC[C@H](C(=O)Nc2ncc(-c3ccccc3)s2)C1`, the GI50 is 0.814 µM in the test on DU-145 prostate; 0.811 µM with HS 578T breast; 0.41 µM in the test on MDA-MB-231 breast; 0.706 µM in the test with PC-3 prostate; 0.483 µM with T-47D breast. For the same compound, the TGI came out at 2.04 µM in the test on DU-145 prostate; 5.05 µM in the test on HS 578T breast; 4.65 µM in the test on MDA-MB-231 breast; 2.97 µM with PC-3 prostate; 3.35 µM in the test on T-47D breast.

`N#Cc1ccccc1Sc1ccccc1N`: the TGI with HOP-18 NSCLC, in the test on LXFL 529 NSCLC, in the test on SNB-78 CNS and with XF 498 CNS was over 100 µM in each case.

On to `C#Cc1cccc(NC(=O)/C=C\C(=O)O)c1`, for which the TGI in the test on KM20L2 colon, with LXFL 529 NSCLC and with SNB-78 CNS was over 100 µM in each case.

`C[n+]1cn(CC(=O)c2ccccc2)c(C(N)=O)c1N`: the TGI in the test with HOP-18 NSCLC, in the test with KM20L2 colon, in the test on LXFL 529 NSCLC and in the test with SNB-78 CNS was over 100 µM throughout.

Turning to `COc1ccc(N(CC(=O)O)N=O)cc1`, the TGI with DU-145 prostate, in the test with HS 578T breast, with MDA-MB-231 breast, in the test with PC-3 prostate and in the test on T-47D breast was over 100 µM in each case.

As to `O=[N+]([O-])/C=C/c1ccc2ccccc2c1`, the TGI was over 35.9 µM in the test with DU-145 prostate; over 61.8 µM with HS 578T breast; 13.4 µM with MDA-MB-231 breast; 14 µM in the test with PC-3 prostate; 2.13 µM with T-47D breast.

In the case of `CCC(Oc1ccc(OC)c2c1C(=O)CCC2)C(=O)O` (configuration not stated), the TGI in the test on LXFL 529 NSCLC, in the test with SNB-78 CNS and in the test on XF 498 CNS was over 100 µM each time.

In the case of `Nc1c(C(=O)Nc2ccccc2)sc2nc3c(cc12)C(=O)CCC3`, the GI50 with DU-145 prostate was 0.328 µM; in the test with HS 578T breast, 0.524 µM; with MDA-MB-231 breast, 2.32 µM; with PC-3 prostate, 0.389 µM; in the test on T-47D breast, 1.46 µM. For the same compound, the TGI is 19.9 µM with DU-145 prostate; over 72.4 µM with HS 578T breast; over 100 µM in the test with MDA-MB-231 breast; over 100 µM with PC-3 prostate; over 100 µM in the test on T-47D breast.
